Reference: patent US9624269B2, “Peptide inhibitors of BACE1” (GENENTECH, INC., priority 2011, dated 2017)
Positions of bridges follow the written chain, without caps; N, C: chain ends. Residues, ends and D or L forms follow the SMILES beside them.

Key:
human BACE1 (rhBACE1) [1] = biological target: T1, human BACE1 (rhBACE1) (Homo sapiens, UniProt P56817); assay: BACE1 fluorescence polarization (FP) competition binding assay with 5-TAMRA-BACE020 probe; settings: for IC50: competition with 3 nM 5-TAMRA-BACE020, 12 nM rhBACE1, pH 4.4
Method: BACE1 Fluorescence Polarization Competition Binding Assay.
BACE1 binding assays were carried out in a final volume of 10 μL per well in black 384-well microplates (Proxiplate-Plus; Perkin Elmer, Waltham, Mass.). A standard binding reaction, initiated by the addition of 5 μL 2× enzyme to 2.5 μL of 4× binding probe and […] of 4× inhibitor, contained 12 nM rhBACE1, 3 nM 5-TAMRA-[…] (SEQ ID NO: 16) (5-TAMRA-BACE020), 50 mM NaOAc, pH 4.4 with 0.1% CHAPS. The reaction was permitted to proceed towards equilibrium for 2 h at ambient temperature prior to fluorescence polarization measurement using Envision (Perkin Elmer). The parallel and perpendicular fluorescent emissions measured in each well at 595 nm (excitation 531 nm polarized light) were used to determine the milli-polarization level (mP) using the following formula: mP=1000*(S-G*P)/(S+G*P) where S=parallel emission, P=perpendicular emission and G=0.65. The mP value in each well was plotted as a function of inhibitor concentration and the 50% inhibition (IC50) values were determined using a nonlinear least squares fit of the data to a four parameter equation using Prism 5.0 software (GraphPad Software, San Diego, Calif.). 5-TAMRA-labeled BACE020 was purchased from American Peptide Company, Inc (Sunnyvale, Calif.) and solubilized in DMSO to 100 mM for storage.
The affinities of BACE1 peptide ligands were measured using the abovementioned competition binding FP assay for determining IC50 values with serially diluted peptides. A Caliper assay was used to measure the inhibition of BACE1 enzymatic activity by peptide ligands. […] Furthermore, the IC50 values measured by the Caliper assay for peptides BACE017-021 and BACE025-028 are consistent with those measured by the HTRF assay.
Target sequence in this assay (P56817 46-501): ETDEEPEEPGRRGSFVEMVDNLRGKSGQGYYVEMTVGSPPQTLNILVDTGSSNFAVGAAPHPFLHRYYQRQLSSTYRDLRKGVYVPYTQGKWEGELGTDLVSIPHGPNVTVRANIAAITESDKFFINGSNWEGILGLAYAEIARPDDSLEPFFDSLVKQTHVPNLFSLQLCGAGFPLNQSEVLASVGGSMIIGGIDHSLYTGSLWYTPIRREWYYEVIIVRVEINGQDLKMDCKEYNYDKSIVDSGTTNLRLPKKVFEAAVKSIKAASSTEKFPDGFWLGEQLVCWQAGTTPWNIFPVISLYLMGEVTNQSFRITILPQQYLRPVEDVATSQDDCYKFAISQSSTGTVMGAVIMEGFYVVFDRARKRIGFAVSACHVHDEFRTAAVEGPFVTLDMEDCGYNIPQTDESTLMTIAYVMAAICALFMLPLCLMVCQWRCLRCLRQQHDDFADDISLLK

human BACE1 (rhBACE1) [2] = biological target: T1, human BACE1 (rhBACE1); assay: Caliper BACE1 activity assay (microfluidic capillary electrophoresis); assay type: biochemical; set-up: containing human BACE1 (extracellular domain); settings: for IC50: 12 nM rhBACE1, 1 μM FAM-substrate, pH 4.4
Method: An MCE assay reactions can be carried out in a standard enzymatic reaction, initiated by the addition of substrate to enzyme and 4× compound, containing human BACE1 (extracellular domain), amyloid precursor protein beta secretase active site peptide (FAM-[…]-CONH2 (SEQ ID NO: 20)), 50 mM NaOAc pH 4.4 and 0.1% CHAPS. After incubation for 60 minutes at ambient temperature, the product and substrate in each reaction is separated using a 12-sipper microfluidic chip analyzed on an LC3000® (both, Caliper Life Sciences). The separation of product and substrate is optimized by choosing voltages and pressure using the manufacturer's optimization software. Substrate conversion is calculated from the electrophoregram using HTS Well Analyzer software (Caliper Life Sciences).
BACE1, BACE2 and Cathepsin D Activity Assay Using Microfluidic Capillary Electrophoresis (MCE).
BACE1, BACE2, and Cathepsin D reactions were carried out in a final volume of 20 μl per well in a 384-well microplate using a Caliper LabChip 3000 (Hopkinton, Mass.). A standard enzymatic reaction, initiated by the addition of 10 μ12× substrate to 5 μl of 4× enzyme and 5 μl of 4× peptide or small molecule inhibitor, contained 12 nM rhBACE1, 1 μM FAM-[…]-amide (SEQ ID NO: 20), 50 mM NaOAc, pH 4.4, 0.1% CHAPS. The same reaction conditions were used for rhBACE2 (5 nM) and Cathepsin D (6 nM) (Cat. No. 219394; EMD Biosciences, San Diego, Calif.). After incubation for 60 min at room temperature, the product and substrate in each reaction were separated using a 12-sipper microfluidic chip. Separation of product and substrate was optimized by choosing voltages and pressure using the Caliper Optimizer software. The separation buffer contained 100 mM HEPES, pH 7.2, 0.015% Brij-35, 0.1% Coating Reagent #3, 10 mM EDTA and 5% DMSO. The separation conditions used a downstream voltage of −500 V, an upstream voltage of −2250 V, and a screening pressure of −1.2 psi. The product and substrate fluorescence was excited at 488 nm and detected at 530 nm. Substrate conversion was calculated from the electrophoregram using the Caliper HTS Well Analyzer software.
Target sequence in this assay (P56817 46-457 limits assumed): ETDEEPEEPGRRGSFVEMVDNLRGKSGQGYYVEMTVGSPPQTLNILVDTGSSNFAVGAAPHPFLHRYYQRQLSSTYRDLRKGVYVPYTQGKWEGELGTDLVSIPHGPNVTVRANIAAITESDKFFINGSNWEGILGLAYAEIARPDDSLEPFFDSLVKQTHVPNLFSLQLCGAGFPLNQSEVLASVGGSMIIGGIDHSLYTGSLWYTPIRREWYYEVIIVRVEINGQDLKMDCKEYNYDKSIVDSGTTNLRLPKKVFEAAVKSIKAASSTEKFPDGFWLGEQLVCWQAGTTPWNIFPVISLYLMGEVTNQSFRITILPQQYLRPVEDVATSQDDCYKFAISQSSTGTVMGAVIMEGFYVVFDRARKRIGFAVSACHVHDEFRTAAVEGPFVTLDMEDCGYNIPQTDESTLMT

IC50 (human BACE1 (rhBACE1) [1]) | IC50 (human BACE1 (rhBACE1) [2]) | weakening of affinity relative to BACE020 (human BACE1 (rhBACE1) [1]; FP binding assay) | weakening of inhibitory activity relative to BACE020 (human BACE1 (rhBACE1) [2]; Caliper activity assay) | Compound
> 10000 nM | > 10000 nM |  |  | CC[C@H](C)[C@@H]1NC(=O)CNC(=O)[C@H](CC(C)C)NC(=O)[C@H](CC(C)C)NC(=O)[C@H](C)NC(=O)[C@@H](NC(=O)[C@H](Cc2ccc(O)cc2)NC(=O)[C@H](CCSC)NC(=O)[C@H](CO)NC(=O)[C@H](CCC(=O)O)NC(C)=O)CSSC[C@@H](C(=O)NCC(N)=O)NC(=O)CNC1=O [BACE057] (Ac-ESMYCALLGIGCG-NH2; disulfide 5-12)
> 10000 nM |  |  |  | CC[C@H](C)[C@@H]1NC(=O)CNC(=O)[C@H](CC(C)C)NC(=O)[C@H](CC(C)C)NC(=O)[C@H](CCCNC(=N)N)NC(=O)[C@@H](NC(=O)[C@H](Cc2ccc(O)cc2)NC(=O)[C@H](CCSC)NC(C)=O)CSSC[C@@H](C(=O)NCC(N)=O)NC(=O)CNC1=O [BACE032] (Ac-MYCRLLGIGCG-NH2; disulfide 3-10)
 | 3570 ± 3650 nM |  |  | CC[C@H](C)[C@@H]1NC(=O)CNC(=O)[C@H](CC(C)C)NC(=O)[C@H](CC(C)C)NC(=O)[C@H](CCCNC(=N)N)NC(=O)[C@@H](NC(=O)[C@H](Cc2ccc(O)cc2)NC(=O)[C@H](CCSC)NC(=O)[C@H](Cc2c[nH]cn2)NC(=O)[C@H](CCC(=O)O)NC(=O)[C@H](CCC(=O)O)NC(=O)[C@H](CC(N)=O)NC(C)=O)CSSC[C@@H](C(=O)NCC(N)=O)NC(=O)CNC1=O [BACE056] (Ac-NEEHMYCRLLGIGCG-NH2; disulfide 7-14)
> 10000 nM | > 10000 nM |  |  | Ac-PEESLYSRLLALGSG-NH2 [BACE028]
> 10000 nM |  |  |  | CC[C@H](C)[C@H](NC(=O)[C@H](Cc1ccccc1)NC(=O)[C@H](Cc1ccc(O)cc1)NC(=O)[C@@H]1CCCN1C(=O)[C@H](Cc1ccc(O)cc1)NC(C)=O)C(=O)N1CCC[C@H]1C(=O)N[C@@H](CC(C)C)C(N)=O [BMS4, reference compound]
≥ 10000 nM | ≥ 10000 nM |  |  | Ac-KEESIYSRLMGLGSG-NH2 [BACE025]
 | 13 ± 2 nM |  |  | CC[C@H](C)[C@@H]1NC(=O)CNC(=O)[C@H](CC(C)C)NC(=O)[C@H](CC(C)C)NC(=O)[C@H](CCCNC(=N)N)NC(=O)[C@@H](NC(=O)[C@H](Cc2ccc(O)cc2)NC(=O)[C@H](CCSC)NC(=O)[C@H](CO)NC(=O)[C@H](CCC(=O)O)NC(=O)[C@H](C)NC(=O)[C@H](CC(N)=O)NC(C)=O)CSSC[C@@H](C(=O)NCC(N)=O)NC(=O)CNC1=O [BACE043] (Ac-NAESMYCRLLGIGCG-NH2; disulfide 7-14)
 | 7 nM |  |  | CC[C@H](C)[C@@H]1NC(=O)CNC(=O)[C@H](CC(C)C)NC(=O)[C@H](CC(C)C)NC(=O)[C@H](CCCNC(=N)N)NC(=O)[C@@H](NC(=O)[C@H](Cc2ccc(O)cc2)NC(=O)[C@H](CCSC)NC(=O)[C@H](CO)NC(=O)[C@H](CCC(=O)O)NC(=O)[C@H](CCC(=O)O)NC(=O)[C@H](CC(N)=O)NC(C)=O)CSSC[C@@H](C(=O)NCC(N)=O)NC(=O)[C@H](C)NC1=O [BACE053] (Ac-NEESMYCRLLGIACG-NH2; disulfide 7-14)

The next lines start with the compound.

Compound | IC50 (human BACE1 (rhBACE1) [1]) | IC50 (human BACE1 (rhBACE1) [2]) | weakening of affinity relative to BACE020 (human BACE1 (rhBACE1) [1]; FP binding assay) | weakening of inhibitory activity relative to BACE020 (human BACE1 (rhBACE1) [2]; Caliper activity assay)
CC[C@H](C)[C@@H]1NC(=O)CNC(=O)[C@H](CC(C)C)NC(=O)[C@H](CC(C)C)NC(=O)[C@H](CCCNC(=N)N)NC(=O)[C@@H](NC(C)=O)CSSC[C@@H](C(=O)NCC(N)=O)NC(=O)CNC1=O [BACE034] (Ac-CRLLGIGCG-NH2; disulfide 1-8) | > 10000 nM |  |  | 
CC[C@H](C)[C@@H]1NC(=O)CNC(=O)[C@H](CC(C)C)NC(=O)[C@H](CC(C)C)NC(=O)[C@H](CCCNC(=N)N)NC(=O)[C@@H](NC(=O)[C@H](Cc2ccc(O)cc2)NC(=O)[C@H](CCSC)NC(=O)[C@H](CO)NC(=O)[C@H](CCC(=O)O)NC(=O)[C@H](CCC(=O)O)NC(C)=O)CSSC[C@@H](C(=O)NCC(N)=O)NC(=O)CNC1=O [BACE029] (Ac-EESMYCRLLGIGCG-NH2; disulfide 6-13) | 12 nM | 13 ± 8 nM |  | 
CC[C@H](C)[C@@H]1NC(=O)CNC(=O)[C@H](CC(C)C)NC(=O)[C@H](CC(C)C)NC(=O)[C@H](CCCNC(=N)N)NC(=O)[C@@H](NC(=O)[C@H](Cc2ccc(O)cc2)NC(C)=O)CSSC[C@@H](C(=O)NCC(N)=O)NC(=O)CNC1=O [BACE033] (Ac-YCRLLGIGCG-NH2; disulfide 2-9) | > 10000 nM |  |  | 
CC[C@H](C)[C@@H]1NC(=O)CNC(=O)[C@H](CC(C)C)NC(=O)[C@H](CC(C)C)NC(=O)[C@H](CCCNC(=N)N)NC(=O)[C@@H](NC(=O)[C@H](Cc2ccc(O)cc2)NC(=O)[C@H](CCSC)NC(=O)[C@H](CO)NC(=O)[C@H](CCC(=O)O)NC(=O)[C@H](CCC(=O)O)NC(=O)[C@H](C)NC(C)=O)CSSC[C@@H](C(=O)NCC(N)=O)NC(=O)CNC1=O [BACE042] (Ac-AEESMYCRLLGIGCG-NH2; disulfide 7-14) |  | 12 ± 8 nM |  | 
CC[C@H](C)[C@@H]1NC(=O)CNC(=O)[C@H](CC(C)C)NC(=O)[C@H](CC(C)C)NC(=O)[C@H](CCCNC(=N)N)NC(=O)[C@@H](NC(=O)[C@H](Cc2ccc(O)cc2)NC(=O)[C@H](CCSC)NC(=O)[C@H](CO)NC(C)=O)CSSC[C@@H](C(=O)NCC(N)=O)NC(=O)CNC1=O [BACE031] (Ac-SMYCRLLGIGCG-NH2; disulfide 4-11) |  |  | 3-4 fold | 3-4 fold
CC[C@H](C)[C@@H]1NC(=O)CNC(=O)[C@H](CC(C)C)NC(=O)[C@H](CC(C)C)NC(=O)[C@H](C)NC(=O)[C@@H](NC(=O)[C@H](Cc2ccc(O)cc2)NC(=O)[C@H](CCSC)NC(=O)[C@H](CO)NC(=O)[C@H](CCC(=O)O)NC(=O)[C@H](CCC(=O)O)NC(=O)[C@H](CC(N)=O)NC(C)=O)CSSC[C@@H](C(=O)NCC(N)=O)NC(=O)CNC1=O [BACE048] (Ac-NEESMYCALLGIGCG-NH2; disulfide 7-14) | > 10000 nM | > 10000 nM |  | 
CC[C@H](C)[C@@H]1NC(=O)[C@H](C)NC(=O)[C@H](CC(C)C)NC(=O)[C@H](CC(C)C)NC(=O)[C@H](CCCNC(=N)N)NC(=O)[C@@H](NC(=O)[C@H](Cc2ccc(O)cc2)NC(=O)[C@H](CCSC)NC(=O)[C@H](CO)NC(=O)[C@H](CCC(=O)O)NC(=O)[C@H](CCC(=O)O)NC(=O)[C@H](CC(N)=O)NC(C)=O)CSSC[C@@H](C(=O)NCC(N)=O)NC(=O)CNC1=O [BACE051] (Ac-NEESMYCRLLAIGCG-NH2; disulfide 7-14) |  | 18 ± 5 nM |  | 
CC[C@H](C)[C@@H]1NC(=O)CNC(=O)[C@H](CC(C)C)NC(=O)[C@H](CC(C)C)NC(=O)[C@H](CCCNC(=N)N)NC(=O)[C@@H](NC(=O)[C@H](Cc2ccc(O)cc2)NC(=O)[C@H](CCSC)NC(=O)[C@H](CO)NC(=O)[C@H](CCC(=O)O)NC(=O)[C@H](CCC(=O)O)NC(=O)[C@H](CC(N)=O)NC(C)=O)CSSC[C@@H](C(=O)N[C@@H](C)C(N)=O)NC(=O)CNC1=O [BACE054] (Ac-NEESMYCRLLGIGCA-NH2; disulfide 7-14) | 12 ± 3 nM | 7 ± 4 nM |  | 
CC[C@H](C)[C@@H]1NC(=O)CNC(=O)[C@H](CC(C)C)NC(=O)[C@H](CC(C)C)NC(=O)[C@H](CCCNC(=N)N)NC(=O)[C@@H](NC(=O)[C@H](Cc2ccccc2)NC(=O)[C@H](CCSC)NC(=O)[C@H](CO)NC(=O)[C@H](CCC(=O)O)NC(=O)[C@H](CCC(=O)O)NC(=O)[C@H](CC(N)=O)NC(C)=O)CSSC[C@@H](C(=O)NCC(N)=O)NC(=O)CNC1=O [BACE055] (Ac-NEESMFCRLLGIGCG-NH2; disulfide 7-14) |  | 11 ± 2 nM |  | 
